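96-well plates; 48 h exposure; 5 concentrations. Endpoints by linear interpolation between flanking doses. Not reached: highest tested concentration assigned. TGI marks complete inhibition of growth.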 Where a SMILES comes first, the peptide text is derived from it. The star is where a group is joined. Boc = CC(C)(C)OC(=O)*; OtBu = CC(C)(C)O*
What was measured:
Assay in all cases: inhibition of tumour cell growth, NCI panel, 48 h
[1] = system: U251 CNS
[2] = system: HCT-116 colon
[3] = system: SK-OV-3 ovarian
[4] = system: HS 578T breast
[5] = system: 786-0 renal
[6] = system: SF-268 CNS
[7] = system: OVCAR-5 ovarian
[8] = system: NCI-H226 lung
[9] = system: HT29 colon
[10] = system: UACC-257 melanoma
[11] = system: PC-3 prostate
[12] = system: EKVX NSCLC

Row | Compound | TGI [1] | TGI [2] | TGI [3] | TGI [4] | TGI [5] | TGI [6] | TGI [7] | TGI [8] | TGI [9] | TGI [10] | TGI [11] | TGI [12]
1 | O=C1C(CN2CCCC2)CCC1CN1CCCC1 (centres undefined) | > 100 µM | 32.6 µM | > 100 µM | 55.7 µM | 29.8 µM | 46.2 µM | > 55.9 µM | > 74.4 µM | 40.7 µM | 32.6 µM | > 55.9 µM | > 82.7 µM
2 | COc1ccccc1Nc1nc(N)nc(N)c1N | > 100 µM | 39.8 µM | > 100 µM | > 100 µM | > 100 µM | > 100 µM | > 100 µM | > 100 µM | > 100 µM | > 100 µM | > 100 µM | > 100 µM
3 | C[C@H]1CC(=O)C[C@@H]2CC[C@@H]3[C@H](CC[C@]4(C)C(OC(=O)c5cccc6c(=O)c7ccccc7[nH]c56)CC[C@@H]34)[C@]21C (some centres undefined) | > 100 µM | > 100 µM | > 100 µM | > 100 µM | > 100 µM | > 100 µM | > 100 µM | > 100 µM | > 100 µM | > 100 µM | > 100 µM | > 100 µM
4 | CC(=O)C1=C(C)N2C(=NC3=C(CCc4ccccc43)C2c2ccc(Cl)cc2)S1 (centres undefined) | > 100 µM | > 100 µM | > 100 µM | > 100 µM | > 100 µM | > 100 µM | > 100 µM | > 100 µM | > 100 µM | > 100 µM | > 100 µM | > 100 µM
5 | Nc1nc(NCc2ccccc2)cc(NCc2ccccc2)n1 | 71.2 µM | 21.2 µM | 33.7 µM | 13.4 µM | 22.5 µM | 19.3 µM | 50.4 µM | 27.5 µM | 11.9 µM | 21.6 µM | 16.8 µM | 41 µM
6 | CC(C)CCNC(=O)c1ccc(CNC(=O)/C=C/c2ccc3c(c2)-c2ccccc2C3)cc1 | 65.2 µM | > 100 µM | > 100 µM | > 100 µM | 81.1 µM | > 100 µM | > 100 µM | > 100 µM | > 100 µM | > 100 µM | > 100 µM | > 100 µM
7 | Cc1ccc(Nc2nc3ccccc3nc2NS(=O)(=O)c2ccc(N)cc2)cc1 | > 100 µM | > 100 µM | > 100 µM | > 100 µM | > 100 µM | > 100 µM | > 100 µM | > 100 µM | > 100 µM | > 100 µM | > 100 µM | > 100 µM
8 | COc1cc(Nc2nc(NS(=O)(=O)c3cc(C)c(Cl)cc3S)n[nH]2)cc(OC)c1OC | > 100 µM | > 100 µM | > 100 µM | > 100 µM | > 100 µM | > 100 µM | > 100 µM | > 100 µM | > 100 µM | > 100 µM | > 100 µM | > 100 µM
9 | COc1cccc(O)c1-c1cc(=O)c2c(O)c(OC)c(OC)c(OC)c2o1 | > 100 µM | > 100 µM | 89.3 µM | > 100 µM | > 100 µM | > 100 µM | > 100 µM | > 100 µM | 91 µM | 80.5 µM | 66.7 µM | > 100 µM
10 | C=C1C(=O)O[C@H]2[C@@H]3O[C@@](C)(CC/C=C(\C)CCC[C@@H]2C)[C@H](O)C[C@@H]13 | > 100 µM | > 100 µM | 32.5 µM | 25.9 µM | 16.2 µM | > 100 µM | 31.2 µM | 5.89 µM | 3.94 µM | 27.4 µM | 22.1 µM | > 100 µM
11 | O=C(NNC(=O)c1cc2ccccc2[nH]1)c1cc2ccccc2[nH]1 | > 100 µM | > 100 µM | > 100 µM | > 100 µM | > 100 µM | > 100 µM | > 100 µM | > 100 µM | > 100 µM | > 100 µM | > 100 µM | > 100 µM
12 | O=C(O)CN1CCN2CCOCCN(CC1)CCN(CC(=O)O)CC2 | > 100 µM | > 100 µM | > 100 µM | > 100 µM | > 100 µM | > 100 µM | > 100 µM | > 100 µM | > 100 µM | > 100 µM | > 100 µM | > 100 µM
13 | Cn1c2ccccc2n2c3ccccc3c3nnc(N)c-3c12 | 11.7 µM | > 100 µM | > 100 µM | 10.8 µM | 49.8 µM | 3.68 µM | > 100 µM | > 100 µM | > 100 µM | > 100 µM | > 100 µM | > 100 µM
14 | NS(=O)(=O)c1ccc(NNc2c3ccccc3nc3c(C(=O)Nc4ccc(S(N)(=O)=O)cc4)cccc23)cc1 | 61 µM | > 100 µM | > 100 µM | > 100 µM | > 100 µM | 98.4 µM | > 100 µM | > 100 µM | 72.4 µM | > 100 µM | > 100 µM | > 100 µM
15 | CC(=O)OCC1OC(Sc2nc(-c3ccccc3)c(C#N)c(=O)n2C2OC(COC(C)=O)C(OC(C)=O)C(OC(C)=O)C2OC(C)=O)C(OC(C)=O)C(OC(C)=O)C1OC(C)=O (centres undefined) | > 100 µM | > 100 µM | > 100 µM | > 100 µM | > 100 µM | > 100 µM | > 100 µM | > 100 µM | > 100 µM | > 100 µM | > 100 µM | > 100 µM
16 | COC(=O)[C@@H](N1C(=O)c2ccccc2C1=O)C1(C)CC(Cl)=NO1 (some centres undefined) | 77.2 µM | > 100 µM | > 100 µM | 75.3 µM | > 100 µM | 76.9 µM | > 100 µM | > 100 µM | > 100 µM | > 100 µM | > 100 µM | > 100 µM

Row | Compound | TGI [1] | TGI [2] | TGI [3] | TGI [4] | TGI [5] | TGI [6] | TGI [7] | TGI [8] | TGI [9] | TGI [10] | TGI [11] | TGI [12]
17 | CC(C)C1CC(CO)(CNc2nc(N)nc(Cl)c2C=O)C1 (centres undefined) | 10.6 µM | 7.23 µM | 61.7 µM | 31.3 µM | > 100 µM | > 23.7 µM | 96.9 µM | 26.3 µM | 6.42 µM | 6.06 µM | 5.16 µM | 11.4 µM
18 | Cc1nnc(NS(=O)(=O)c2ccc(N=Nc3c(O)c(C(=O)O)cc4ccccc34)cc2)s1 | > 100 µM | > 100 µM | > 100 µM | > 100 µM | > 100 µM | > 100 µM | > 100 µM | > 100 µM | > 100 µM | > 100 µM | > 100 µM | > 100 µM
19 | FC(F)(F)c1ccc2c(c1)nc(Cc1ccc(Cl)cc1)n2CC1CCCN2CCCCC12 (centres undefined) | 20.5 µM | 19.9 µM | 24.1 µM | 6.9 µM | 20.7 µM | 18 µM | 25 µM | 24.2 µM | 11.6 µM | 8.41 µM | 20.9 µM | 23.2 µM
20 | COc1cc(OC)cc(Oc2nc3ccc(C(F)(F)F)cc3nc2-c2ccccc2)c1 | > 100 µM | > 100 µM | > 100 µM | > 100 µM | > 100 µM | > 100 µM | > 100 µM | > 100 µM | > 100 µM | > 100 µM | > 100 µM | > 100 µM
21 | O=c1[nH]c2ccccc2c(=O)c2cc3ccccc3cc12 | 21.4 µM | 20.3 µM | 30.6 µM | 70.9 µM | 21.9 µM | 28.2 µM | > 100 µM | 45.8 µM | > 100 µM | > 100 µM | > 100 µM | > 100 µM
22 | Cc1c(CNc2ccc(Cl)c(Cl)c2Cl)cnc2nc(N)nc(N)c12 | > 46.5 µM | 1.55 µM | > 52.4 µM | 65.6 µM | > 50 µM | > 45.5 µM | > 50.4 µM | > 100 µM | > 53.9 µM | > 55.4 µM | > 49 µM | > 69 µM
23 | COc1cc(N(CCC#N)CCC#N)ccc1/C(N=Nc1cccc([N+](=O)[O-])c1)=N\NC(=O)c1ccc(C)cc1 | > 100 µM | > 100 µM | > 100 µM | > 100 µM | > 100 µM | > 100 µM | > 100 µM | > 100 µM | > 100 µM | 60.9 µM | > 100 µM | 63.1 µM
24 | NC(C(=O)O)C(O)c1cnc[nH]1 (centres undefined) | > 100 µM | > 100 µM | > 100 µM | > 100 µM | > 100 µM | > 100 µM | > 100 µM | > 100 µM | > 100 µM | > 100 µM | > 100 µM | > 100 µM
25 | CC(=O)OCC1OC(NC(=S)Nn2c(-c3ccccc3)nc3ccccc3c2=O)C(OC(C)=O)C(OC(C)=O)C1OC(C)=O (centres undefined) | > 100 µM | > 100 µM | > 100 µM | > 100 µM | > 100 µM | > 100 µM | > 100 µM | > 100 µM | > 100 µM | > 100 µM | > 100 µM | > 100 µM
26 | O=[N+]([O-])C1=Cc2c(O)ccc(O)c2C2c3ccccc3NC12 (centres undefined) | 29.4 µM | 22.7 µM | > 100 µM | > 57 µM | 24.7 µM | 36.6 µM | 34.1 µM | > 100 µM | 26.4 µM | 29.3 µM | 19 µM | 28.6 µM
27 | CN(C)CCCCN1c2ccccc2Sc2ccc(N=[N+]=[N-])cc21 | 11.9 µM | 16.3 µM | 26.5 µM | 18.4 µM | 23.6 µM | 19.5 µM | 13.5 µM | 17.7 µM | 5.22 µM | 3.54 µM | 10.5 µM | 26.3 µM
28 | CCO/C=N\C1=C(C#N)SC2=N/C(=C\c3ccco3)C(=O)N21 | > 100 µM | > 100 µM | > 100 µM | > 100 µM | > 100 µM | > 100 µM | > 100 µM | > 100 µM | > 100 µM | > 100 µM | > 100 µM | > 100 µM
29 | COc1cc(CCNC2=CC(=O)c3ncccc3C2=O)ccc1O | 19.6 µM | > 34.4 µM | 41.7 µM | 15.6 µM | 18.1 µM | 47.4 µM | 22.7 µM | 6.62 µM | 28.4 µM | 4.28 µM | 22.5 µM | 37.9 µM
30 | CC(=O)OCCn1c(Cc2ccc(Cl)cc2)nn(C(C)=O)c1=O | > 100 µM | > 100 µM | > 100 µM | > 100 µM | > 100 µM | > 100 µM | > 100 µM | > 100 µM | > 100 µM | > 100 µM | > 100 µM | > 100 µM
31 | COC(=O)[C@]1(CCC(C)=O)C(=O)C=CN([C@H](C)c2ccccc2)[C@@H]1Cc1ccc(OC)c(OCc2ccccc2)c1I | 33.9 µM | 27 µM | > 100 µM | 79.4 µM | 34.9 µM | 38.7 µM | 63.8 µM | 34.3 µM | 31.8 µM | 32.6 µM | 74.5 µM | > 100 µM
32 | CC(C)(C)OC(=O)CC(NC(=O)OC(C)(C)C)C(=O)NC(Cc1ccccc1)C(N)=O (centres undefined) (Boc-Asp(OtBu)-Phe-NH2; configuration not given here) | > 100 µM | > 100 µM | > 100 µM | > 100 µM | > 100 µM | > 100 µM | > 100 µM | > 100 µM | > 100 µM | > 100 µM | > 100 µM | > 100 µM

— PubChem BioAssay (NCI)
